Test results as given in ChEMBL document CHEMBL2113921, “Open Source Malaria Deposition 1. http://malaria.ourexperiment.org” (2013).

Columns and labels:
Plasmodium falciparum [1] = assay: OSM: Inhibition of Plasmodium falciparum 3D7 growth. IC50 values determined from 21 point dose response curves. Avery Group Griffith.; assay type: functional, organism-based
Plasmodium falciparum [2] = assay: OSM: Percent inhibition of Plasmodium falciparum 3D7 growth at 120 uM. Avery Group Griffith.; assay type: functional
[3] = OSM: HEK293 cytotoxicity assay. Duplicate point single experiment at 120 uM. Avery Group, Griffith.; assay type: toxicity, cell-based; details: human, HEK293 cells; read-out: Inhibition
Plasmodium falciparum K1 [4] = assay: OSM: Percent inhibition of Plasmodium falciparum K1 growth at 120 uM. Avery Group Griffith.; assay type: functional
Plasmodium falciparum [5] = assay: OSM: Late stage gametocytes. IC50 values determined from 21 point dose response curves. Avery Group Griffith.; assay type: functional, organism-based; details: Pfs16-GFP transgenic NF54
Plasmodium falciparum [6] = assay: OSM: Inhibition of Plasmodium falciparum 3D7 growth using a SYBR green I fluorescence based assay. GSK Tres Cantos.; assay type: functional, organism-based
Plasmodium falciparum [7] = assay: OSM: Inhibition of Plasmodium falciparum 3D7 growth using a SYBR green I fluorescence based assay. Dose response curves were generated comprising of 8 points using a 2-fold serial dilution for the maximum final concentration of 1000 nM. Ralph Group, Bio21.; assay type: functional, organism-based
Plasmodium falciparum K1 [8] = assay: OSM: Inhibition of Plasmodium falciparum K1 growth. IC50 values determined from 21 point dose response curves. Avery Group Griffith.; assay type: functional, organism-based

SMILES	IC50 (Plasmodium falciparum [1])	other results
CN(C)C(=O)n1cnc(SCc2ccccc2)n1	0.438 µM	
CN(C)C(=O)n1cnc(S(=O)(=O)N(C)c2ccccc2)n1	0.333 µM	
CCOC(=O)c1cc(C)n(-c2ccccc2)c1C		inhibition at 120 µM (Plasmodium falciparum [2]): 80%; cytotoxicity at 120 µM [3]: 0%; inhibition at 120 µM (Plasmodium falciparum K1 [4]): 0%
CCN(CC(=O)Nc1c(F)cccc1F)C(=O)c1cc(C)n(-c2ccc(F)cc2)c1C	> 40 µM	
Cc1cc(C(=O)OC(C)(C)C(N)=O)c(C)n1-c1ccc(F)cc1	> 40 µM	
COC(=O)c1sccc1NC=O	> 40 µM	
COc1ccc2nc3cc(Cl)ccc3c(Nc3cc(CN4CCCC4)c(O)c(CN4CCCC4)c3)c2n1 [PYRONARIDINE]	0.0032 µM	IC50 (Plasmodium falciparum [5]): 2.96 µM
Oc1ncnc2cc(I)sc12	> 40 µM	
Cc1cc(C(=O)OC(C)C(=O)O)c(C)n1-c1ccc(F)cc1 (centres undefined)	> 40 µM	
Cc1cc(/C=C2\S/C(=N\c3ccccc3)N(c3ccccc3)C2=O)c(C)n1-c1ccc(C(F)(F)F)cc1	0.054 µM	IC50 (Plasmodium falciparum [6]): 0.372 µM; IC50 (Plasmodium falciparum [7]): 0.485 µM
Cc1cc(-c2nc(C(=O)O)co2)c(C)n1-c1ccc(F)cc1	> 40 µM	
Cc1cc(/C=C2\S/C(=N\c3ccccc3)N(CC#N)C2=O)c(C)n1-c1ccc(C(F)(F)F)cc1	3.12 µM	IC50 (Plasmodium falciparum [6]): > 5 µM; IC50 (Plasmodium falciparum [7]): > 1 µM
COc1cccc(NC(=O)CSc2nnc(-c3cc(C)n(-c4ccccc4)c3C)o2)c1	> 40 µM	
Cc1cc(C=O)c(C)n1-c1ccc(F)cc1		inhibition at 120 µM (Plasmodium falciparum [2]): 60%; IC50 (Plasmodium falciparum [6]): > 5 µM; cytotoxicity at 120 µM [3]: 25%; inhibition at 120 µM (Plasmodium falciparum K1 [4]): 50%
CCOC(=O)c1ccc(-n2c(C)cc(/C=C3\S/C(=N/c4ccccc4)NC3=O)c2C)cc1	0.169 µM	IC50 (Plasmodium falciparum [6]): 0.267 µM; IC50 (Plasmodium falciparum [7]): 0.339 µM
CCOC(=O)c1cc(C)n(-c2ccc(F)cc2)c1C	12 µM	IC50 (Plasmodium falciparum K1 [8]): 12.4 µM; IC50 (Plasmodium falciparum [6]): > 5 µM; cytotoxicity at 120 µM [3]: 25%
CCOc1ccc(Nc2ncnc3ccsc23)cc1S(=O)(=O)N(C)C	> 40 µM	
CNS(=O)(=O)c1ccc(CNc2ncnc3cc(-c4ccc(OC)cc4)sc23)s1	17.6 µM	
CNC(=O)CCC(=O)c1cc(C)n(-c2ccc(F)cc2)c1C	> 40 µM	

SMILES	IC50 (Plasmodium falciparum [1])	other results
Clc1ncnc2ccsc12	9.4 µM	
Cc1cc(CN(C)CC(N)=O)c(C)n1-c1ccc(F)cc1	> 40 µM	
Cc1ccc(-n2c(C)cc(C(=O)O)c2C)cc1		inhibition at 120 µM (Plasmodium falciparum [2]): 70%; cytotoxicity at 120 µM [3]: 0%; inhibition at 120 µM (Plasmodium falciparum K1 [4]): 0%
NC(=O)COC(=O)c1cnn(-c2ccc(F)cc2)c1	> 40 µM	
CC(=O)N(C1=NC(=O)/C(=C/c2cc(C)n(-c3ccccc3)c2C)S1)c1ccccc1	0.063 µM	IC50 (Plasmodium falciparum [6]): 0.085 µM; IC50 (Plasmodium falciparum [7]): 0.028 µM
COC(=O)[C@@H]1COC(c2cc(C)n(-c3ccc(F)cc3)c2C)=N1	> 40 µM	
Cc1ccc(Nc2ncnc3ccsc23)cc1S(=O)(=O)N(C)C	> 40 µM	
COc1cc(C)c2c(Oc3cccc(C(F)(F)F)c3)c(OC)cc(NC(C)CCCN)c2n1 (centres undefined) [TAFENOQUINE]		IC50 (Plasmodium falciparum [5]): 2.8 µM
Cc1cc(C(=O)CCC(=O)O)c(C)n1-c1ccc(F)cc1	> 40 µM	
O=S(=O)(Nc1ncnc2sc(-c3ccccc3)cc12)c1ccccc1	> 40 µM	
CCc1ccc(-n2c(C)cc(CN3CCC(C(=O)O)CC3)c2C)cc1	> 40 µM	
CC(Nc1ncnc2ccsc12)c1cccc(S(N)(=O)=O)c1 (centres undefined)	> 40 µM	
Cc1c(-c2nc(C(N)=O)co2)cnn1-c1ccc(F)cc1	> 40 µM	
Cc1cc(CNC2CCN(Cc3ccccc3)CC2)c(C)n1-c1ccc(F)cc1	4.8 µM	
Cc1cc(CNCC(N)=O)c(C)n1-c1ccc(F)cc1	> 40 µM	
CCNC(=O)C1CC(N)CN1Cc1cc(C)n(-c2ccccc2Cl)c1C (centres undefined)	24.7 µM	
CNC(=O)CN1CCC(NCc2cc(C)n(-c3ccc(Cl)cc3)c2C)CC1	14.7 µM	
CCOC(=O)C(C)OC(=O)c1cc(C)n(-c2ccc(F)cc2)c1C (centres undefined)	> 40 µM	
Cc1cc(/C=C2\S/C(=N\c3ccccc3)NC2=O)c(C)n1-c1ccccn1	0.307 µM	IC50 (Plasmodium falciparum [6]): 0.309 µM; IC50 (Plasmodium falciparum [7]): 0.442 µM
